Results reported in PubChem BioAssay (NCI).
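Method: 48-hour compound exposure of cells in 96-well plates, five concentrations, linear interpolation of endpoints. GI50 marks 50% less growth. TGI denotes the concentration required for complete inhibition of growth.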

Key:
Assay in all cases: DTP human tumour cell line panel, 48 h
[1] = tested on: SF-295 CNS
[2] = tested on: IGROV1 ovarian
[3] = tested on: RPMI-8226 leukemia
[4] = tested on: HOP-62 NSCLC
[5] = tested on: UACC-257 melanoma
[6] = tested on: RXF 393 renal
[7] = tested on: TK-10 renal
[8] = tested on: SF-539 CNS
[9] = tested on: K-562 leukemia
[10] = tested on: HCC-2998 colon
[11] = tested on: A549 NSCLC
[12] = tested on: A498 renal
[13] = tested on: NCI-H460 lung
[14] = tested on: LOX IMVI melanoma
[15] = tested on: CCRF-CEM leukemia
[16] = tested on: KM12 colon
[17] = tested on: SK-MEL-2 melanoma
[18] = tested on: CAKI-1 renal
[19] = tested on: UO-31 renal
[20] = tested on: HS 578T breast
[21] = tested on: EKVX NSCLC
[22] = tested on: OVCAR-4 ovarian
[23] = tested on: SR leukemia
[24] = tested on: HL-60(TB) leukemia
[25] = tested on: MDA-MB-231 breast
[26] = tested on: SNB-75 CNS
[27] = tested on: NCI-H522 lung
[28] = tested on: PC-3 prostate
[29] = tested on: HCT-15 colon
[30] = tested on: SK-OV-3 ovarian
[31] = tested on: NCI-H23 lung
[32] = tested on: SK-MEL-5 melanoma
[33] = tested on: DU-145 prostate
[34] = tested on: NCI-H226 lung
[35] = tested on: ACHN renal
[36] = tested on: SK-MEL-28 melanoma
[37] = tested on: MOLT-4 leukemia
[38] = tested on: OVCAR-8 ovarian
[39] = tested on: SNB-19 CNS
[40] = tested on: SW-620 colon
[41] = tested on: MDA-MB-435
[42] = tested on: BT-549 breast
[43] = tested on: NCI/ADR-RES ovarian
[44] = tested on: U251 CNS
[45] = tested on: T-47D breast
[46] = tested on: OVCAR-5 ovarian
[47] = tested on: UACC-62 melanoma
[48] = tested on: MCF7 breast
[49] = tested on: 786-0 renal
[50] = tested on: MALME-3M melanoma
[51] = tested on: SF-268 CNS
[52] = tested on: COLO 205 colon
[53] = tested on: HCT-116 colon
[54] = tested on: SN12C renal
[55] = tested on: M14 melanoma
[56] = tested on: HT29 colon
[57] = tested on: OVCAR-3 ovarian
[58] = tested on: HOP-92 NSCLC

Question: With Cc1ccc(-c2cc3c(NC(=O)C4CC4)ncnc3o2)cc1 as the compound, how does the GI50 [1] read?
Answer: > 25 µM

Question: And the TGI [1]?
Answer: > 25 µM

Question: And the GI50 [2]?
Answer: > 25 µM

Question: What about the TGI [2] of the same compound?
Answer: > 25 µM

Question: And the GI50 [3]?
Answer: > 25 µM

Question: And the TGI [3]?
Answer: > 25 µM

Question: What about the GI50 [4] of the same compound?
Answer: > 25 µM

Question: And the TGI [4]?
Answer: > 25 µM

Question: What about the GI50 [5] of the same compound?
Answer: > 25 µM

Question: What about the TGI [5] of the same compound?
Answer: > 25 µM

Question: And the GI50 [6]?
Answer: > 25 µM

Question: And the TGI [6]?
Answer: > 25 µM

Question: And the GI50 [7]?
Answer: > 25 µM

Question: What about the TGI [7] of the same compound?
Answer: > 25 µM

Question: What about the GI50 [8] of the same compound?
Answer: > 25 µM

Question: And the TGI [8]?
Answer: > 25 µM

Question: And the GI50 [9]?
Answer: > 25 µM

Question: And the TGI [9]?
Answer: > 25 µM

Question: What about the GI50 [10] of the same compound?
Answer: > 25 µM

Question: What about the TGI [10] of the same compound?
Answer: > 25 µM

Question: And the GI50 [11]?
Answer: > 25 µM

Question: What about the TGI [11] of the same compound?
Answer: > 25 µM

Question: And the GI50 [12]?
Answer: > 25 µM

Question: And the TGI [12]?
Answer: > 25 µM

Question: What about the GI50 [13] of the same compound?
Answer: > 25 µM

Question: What about the TGI [13] of the same compound?
Answer: > 25 µM

Question: And the GI50 [14]?
Answer: > 25 µM

Question: And the TGI [14]?
Answer: > 25 µM

Question: What about the GI50 [15] of the same compound?
Answer: > 25 µM

Question: And the TGI [15]?
Answer: > 25 µM

Question: What about the GI50 [16] of the same compound?
Answer: > 25 µM

Question: What about the TGI [16] of the same compound?
Answer: > 25 µM

Question: And the GI50 [17]?
Answer: > 25 µM

Question: What about the TGI [17] of the same compound?
Answer: > 25 µM

Question: What about the GI50 [18] of the same compound?
Answer: > 25 µM

Question: What about the TGI [18] of the same compound?
Answer: > 25 µM

Question: What about the GI50 [19] of the same compound?
Answer: > 25 µM

Question: And the TGI [19]?
Answer: > 25 µM

Question: What about the GI50 [20] of the same compound?
Answer: > 25 µM

Question: And the TGI [20]?
Answer: > 25 µM

Question: And the GI50 [21]?
Answer: > 21.3 µM

Question: What about the TGI [21] of the same compound?
Answer: > 25 µM

Question: What about the GI50 [22] of the same compound?
Answer: > 25 µM

Question: And the TGI [22]?
Answer: > 25 µM

Question: And the GI50 [23]?
Answer: > 25 µM

Question: And the TGI [23]?
Answer: > 25 µM

Question: What about the GI50 [24] of the same compound?
Answer: > 25 µM

Question: What about the TGI [24] of the same compound?
Answer: > 25 µM

Question: And the GI50 [25]?
Answer: > 25 µM

Question: And the TGI [25]?
Answer: > 25 µM

Question: What about the GI50 [26] of the same compound?
Answer: 24.2 µM

Question: What about the TGI [26] of the same compound?
Answer: > 25 µM

Question: And the GI50 [27]?
Answer: > 25 µM

Question: What about the TGI [27] of the same compound?
Answer: > 25 µM

Question: And the GI50 [28]?
Answer: > 25 µM

Question: What about the TGI [28] of the same compound?
Answer: > 25 µM

Question: What about the GI50 [29] of the same compound?
Answer: > 25 µM

Question: What about the TGI [29] of the same compound?
Answer: > 25 µM

Question: What about the GI50 [30] of the same compound?
Answer: > 25 µM

Question: What about the TGI [30] of the same compound?
Answer: > 25 µM

Question: What about the GI50 [31] of the same compound?
Answer: > 25 µM

Question: What about the TGI [31] of the same compound?
Answer: > 25 µM

Question: And the GI50 [32]?
Answer: > 25 µM

Question: And the TGI [32]?
Answer: > 25 µM

Question: And the GI50 [33]?
Answer: > 25 µM

Question: What about the TGI [33] of the same compound?
Answer: > 25 µM

Question: What about the GI50 [34] of the same compound?
Answer: > 25 µM

Question: And the TGI [34]?
Answer: > 25 µM

Question: And the GI50 [35]?
Answer: > 25 µM

Question: And the TGI [35]?
Answer: > 25 µM

Question: And the GI50 [36]?
Answer: > 25 µM

Question: What about the TGI [36] of the same compound?
Answer: > 25 µM

Question: What about the GI50 [37] of the same compound?
Answer: > 25 µM

Question: And the TGI [37]?
Answer: > 25 µM

Question: And the GI50 [38]?
Answer: > 25 µM

Question: And the TGI [38]?
Answer: > 25 µM

Question: And the GI50 [39]?
Answer: > 25 µM

Question: And the TGI [39]?
Answer: > 25 µM

Question: And the GI50 [40]?
Answer: > 25 µM

Question: And the TGI [40]?
Answer: > 25 µM

Question: What about the GI50 [41] of the same compound?
Answer: > 25 µM

Question: What about the TGI [41] of the same compound?
Answer: > 25 µM

Question: What about the GI50 [42] of the same compound?
Answer: > 25 µM

Question: What about the TGI [42] of the same compound?
Answer: > 25 µM

Question: What about the GI50 [43] of the same compound?
Answer: > 25 µM

Question: What about the TGI [43] of the same compound?
Answer: > 25 µM

Question: And the GI50 [44]?
Answer: > 25 µM

Question: And the TGI [44]?
Answer: > 25 µM

Question: And the GI50 [45]?
Answer: > 25 µM

Question: And the TGI [45]?
Answer: > 25 µM

Question: And the GI50 [46]?
Answer: > 25 µM

Question: And the TGI [46]?
Answer: > 25 µM

Question: And the GI50 [47]?
Answer: > 25 µM

Question: What about the TGI [47] of the same compound?
Answer: > 25 µM

Question: What about the GI50 [48] of the same compound?
Answer: > 25 µM

Question: And the TGI [48]?
Answer: > 25 µM

Question: What about the GI50 [49] of the same compound?
Answer: > 25 µM

Question: What about the TGI [49] of the same compound?
Answer: > 25 µM

Question: And the GI50 [50]?
Answer: > 25 µM

Question: And the TGI [50]?
Answer: > 25 µM

Question: And the GI50 [51]?
Answer: > 25 µM

Question: What about the TGI [51] of the same compound?
Answer: > 25 µM

Question: And the GI50 [52]?
Answer: > 25 µM

Question: What about the TGI [52] of the same compound?
Answer: > 25 µM

Question: What about the GI50 [53] of the same compound?
Answer: > 25 µM

Question: What about the TGI [53] of the same compound?
Answer: > 25 µM

Question: And the GI50 [54]?
Answer: > 25 µM

Question: What about the TGI [54] of the same compound?
Answer: > 25 µM

Question: What about the GI50 [55] of the same compound?
Answer: > 25 µM

Question: What about the TGI [55] of the same compound?
Answer: > 25 µM

Question: And the GI50 [56]?
Answer: > 25 µM

Question: What about the TGI [56] of the same compound?
Answer: > 25 µM

Question: What about the GI50 [57] of the same compound?
Answer: > 25 µM

Question: What about the TGI [57] of the same compound?
Answer: > 25 µM

Question: What about the GI50 [58] of the same compound?
Answer: > 25 µM

Question: And the TGI [58]?
Answer: > 25 µM
